# According to patent US8354447B2, “mGLU receptors antagonists for treating disorders associated with mGLU receptors including addiction and depression” (The Scripps Research Institute, priority 2002, dated 2013):
# Several values for one entry are separate records, joined by “and”; a condition that tells them apart may be missing. Identical values can stand only once.
# Experiments:
# [1] = tested on: male Wistar rats; assay: ICSS thresholds during spontaneous nicotine withdrawal; format: in vivo, rat
# Text: Animals were trained to respond according to a modification of the discrete-trial current-threshold procedure of Kornetsky and Esposito (Fed Proc 38:2473-2476, 1979), which has been described in detail previously (Markou and Koob, 1992 Physiol Behav 51:111-119). Briefly, a trial was initiated by the delivery of a non-contingent electrical stimulus. […] The current intensity delivered was adjusted for each animal and typically ranged from 50 to 200 μA. […] After a variable inter-trial interval (7.5-12.5 sec, average of 10 sec), another trial was initiated with the delivery of a non-contingent electrical stimulus. […] Responding during the inter-trial interval delayed the onset of the next trial by 12.5 sec. Current levels were varied in alternating descending and ascending series. A set of three trials was presented for each current intensity. Current intensities were altered in 5 μA steps. In each testing session, four alternating descending-ascending series were presented. […] The overall threshold of the session was defined as the mean of the thresholds for the four individual series. Each testing session was ˜30 min in duration. The latency between the onset of the non-contingent stimulus and a positive response was recorded as the response latency. The response latency for each test session was defined as the mean response latency of all trials during which a positive response occurred. After establishment of stable ICSS reward thresholds, rats were tested in the ICSS procedure once daily except for the spontaneous nicotine withdrawal experiment when rats were tested at time-points according to the experimental design.
# Osmotic mini-pumps were surgically removed from nicotine-treated rats (n=15) (defined as rats having been prepared with mini-pumps delivering 3.16 mg/kg/day nicotine free-base for at least seven days) or corresponding control rats (n=17; rats prepared with vehicle-containing mini-pumps). All rats were then tested in the ICSS procedure at 12, 18, 24, 36, 48 and 72 hr after the removal of osmotic mini-pumps. These time points were chosen based on the time course of threshold elevations previously observed during spontaneous nicotine withdrawal after removal of nicotine-delivering osmotic mini-pumps (Harrison et al., 2001, Neuropsychopharmacology 25:55-71; K.L.). […] Thirty min before being tested at the 18 h time-point, one group of nicotine withdrawing and one group of control rats were injected with LY341495 (1 mg/kg); the remaining rats were injected with vehicle.
# [2] = tested on: Male DBA/2J mice; assay: Intravenous nicotine self-administration in drug-naive mice; format: in vivo, mouse
# Experimental: Acute self-administration of nicotine was carried out using a previously described method (Semenova et al. 1995, 1999; Kuzmin et al. 1996a, 1997). The tails of the mice were fixed to the surface of the apparatus during the testing sessions to allow drug delivery; the fixing of the tail allowed the mice to move all of their four paws, head and entire body. […] The only cue associated with the delivery of the drug or vehicle infusion was the noise of the pump. Mice were tested either once or twice, with approximately one month between each test. The second test only occurred in a subset of the original set of mice (2-7 pairs of mice from each of the original groups). This was done to increase the number of subjects/condition, and involved randomly assigning and testing these mice under a different set of conditions than in the original test (i.e., different nicotine and/or MPEP dose).
# Saline or one of four nicotine doses (0.016, 0.048, 0.16, 0.48 μg/inf) were made available to different groups of animals. Each group consisted of 9-17 pairs of animals, including 2-7 mice per group that had previously undergone one testing session at least one month previously (see above). Pre-treatment with MPEP (0, 5, 10, 20 mg/kg intraperitoneally) occurred 15 minutes prior to the initiation of the test session.
# Data analyses were based on the comparison of both active and passive mouse nose-pokes in each pair, using the formula: R=log(AT/PT)−log(ABL/PBL), where (AT/PT) is the ratio of the total number of active versus passive mouse nose-pokes during the 30-min test, and (ABL/PBL) is the ratio of the total number of active versus passive mouse nose-pokes during the 10-min pre-test. […] Some data-points (9/237 pairs of mice) were excluded from the final analyses based on whether or not they lay within 2 standard deviations of the group mean for that specific condition. Nicotine self-administration data, obtained after saline pre-treatment, were analyzed using a one-way ANOVA with nicotine (4 levels) defined as the between-subjects factor. R-criterion data were analyzed using two-way ANOVAs with MPEP dose (4 levels) and nicotine dose (4 levels) defined as the between-subjects factors. Pre-planned R-criterion data analyses were performed using one-way ANOVAs for each available dose of self-administered nicotine and saline, with MPEP dose (4 levels) defined as the between-subject factor. Appropriate individual comparisons were performed using the Student-Newman-Keuls post hoc test. […] Body weights and pre-test nose-poke activity levels were analyzed with three-way ANOVAs (nicotine dose, MPEP dose and mouse, i.e. active/passive, defined as between-subjects factors).
# [3] = MPEP 5 mg/kg, Nicotine 0 μg/inf
# [4] = MPEP 5 mg/kg, Nicotine 0.016 μg/inf
# [5] = MPEP 5 mg/kg, Nicotine 0.048 μg/inf
# [6] = MPEP 5 mg/kg, Nicotine 0.16 μg/inf
# [7] = MPEP 5 mg/kg, Nicotine 0.48 μg/inf
# [8] = MPEP 10 mg/kg, Nicotine 0 μg/inf
# [9] = MPEP 10 mg/kg, Nicotine 0.016 μg/inf
# [10] = MPEP 10 mg/kg, Nicotine 0.048 μg/inf
# [11] = MPEP 10 mg/kg, Nicotine 0.16 μg/inf
# [12] = MPEP 10 mg/kg, Nicotine 0.48 μg/inf
# [13] = MPEP 20 mg/kg, Nicotine 0 μg/inf
# [14] = MPEP 20 mg/kg, Nicotine 0.016 μg/inf
# [15] = MPEP 20 mg/kg, Nicotine 0.048 μg/inf
# [16] = MPEP 20 mg/kg, Nicotine 0.16 μg/inf
# [17] = MPEP 20 mg/kg, Nicotine 0.48 μg/inf
smiles,measurement,setting,value
"CN1CCCC1c1cccnc1 (single isomer, unassigned; (-)) [nicotine, (−)-1-methyl-2-(3-pyridyl) pyrrolidine]",ICSS reward threshold elevation,"[1]; 12 h after removal of mini-pumps delivering 3.16 mg/kg/day nicotine free-base, two groups before treatment (n=8, n=7)",117.67±3.1% and 119.93±3.5%
same,ICSS Thresholds,[1]; withdrawal from chronic nicotine treatment,produced robust ICSS threshold elevations compared to control rats
same,self-administration (R-criterion),"[2]; 0.048 μg/inf nicotine, saline pretreatment",significantly different from saline administration
"Cc1cccc(C#Cc2ccccc2)n1 [MPEP, 2-methyl-6-(phenylethynyl)-pyridine]",total self-injected nicotine dose,[2]; 0.048 μg/inf nicotine,no significant effect of MPEP on total self-injected nicotine dose
same,R-criterion,"[2]; 20 mg/kg MPEP, 0.048 μg/inf nicotine",a trend for 20 mg/kg MPEP to decrease the R-criterion below zero
same,"nose-pokes, active pre-test",[2]; [3],8.19 ± 1.03 responses per minute
same,"nose-pokes, active test",[2]; [3],4.99 ± 1.17 responses per minute
same,"nose-pokes, passive pre-test",[2]; [3],8.38 ± 0.96 responses per minute
same,"nose-pokes, passive test",[2]; [3],6.41 ± 1.38 responses per minute
same,"nose-pokes, active pre-test",[2]; [4],7.86 ± 0.87 responses per minute
same,"nose-pokes, active test",[2]; [4],2.62 ± 0.49 responses per minute
same,"nose-pokes, passive pre-test",[2]; [4],8.01 ± 0.91 responses per minute
same,"nose-pokes, passive test",[2]; [4],3.46 ± 0.74 responses per minute
same,"nose-pokes, active pre-test",[2]; [5],9.13 ± 1.37 responses per minute
same,"nose-pokes, active test",[2]; [5],3.43 ± 0.67 responses per minute
same,"nose-pokes, passive pre-test",[2]; [5],8.93 ± 1.36 responses per minute
same,"nose-pokes, passive test",[2]; [5],4.45 ± 1.06 responses per minute
same,"nose-pokes, active pre-test",[2]; [6],8.32 ± 0.94 responses per minute
same,"nose-pokes, active test",[2]; [6],4.67 ± 0.95 responses per minute
same,"nose-pokes, passive pre-test",[2]; [6],8.48 ± 3.31 responses per minute
same,"nose-pokes, passive test",[2]; [6],4.32 ± 2.37 responses per minute
same,"nose-pokes, active pre-test",[2]; [7],8.12 ± 1.17 responses per minute
same,"nose-pokes, active test",[2]; [7],3.04 ± 0.73 responses per minute
same,"nose-pokes, passive pre-test",[2]; [7],8.58 ± 1.38 responses per minute
same,"nose-pokes, passive test",[2]; [7],3.25 ± 0.88 responses per minute
same,"nose-pokes, active pre-test",[2]; [8],7.95 ± 0.99 responses per minute
same,"nose-pokes, active test",[2]; [8],4.92 ± 1.1 responses per minute
same,"nose-pokes, passive pre-test",[2]; [8],8.00 ± 1.06 responses per minute
same,"nose-pokes, passive test",[2]; [8],5.86 ± 1.56 responses per minute
same,"nose-pokes, active pre-test",[2]; [9],7.79 ± 0.83 responses per minute
same,"nose-pokes, active test",[2]; [9],6.48 ± 1.05 responses per minute
same,"nose-pokes, passive pre-test",[2]; [9],8.22 ± 0.87 responses per minute
same,"nose-pokes, passive test",[2]; [9],4.26 ± 0.94 responses per minute
same,"nose-pokes, active pre-test",[2]; [10],7.43 ± 0.98 responses per minute
same,"nose-pokes, active test",[2]; [10],3.92 ± 1.18 responses per minute
same,"nose-pokes, passive pre-test",[2]; [10],8.06 ± 1.39 responses per minute
same,"nose-pokes, passive test",[2]; [10],5.83 ± 1.72 responses per minute
same,"nose-pokes, active pre-test",[2]; [11],7.12 ± 0.66 responses per minute
same,"nose-pokes, active test",[2]; [11],4.19 ± 0.81 responses per minute
same,"nose-pokes, passive pre-test",[2]; [11],7.20 ± 0.69 responses per minute
same,"nose-pokes, passive test",[2]; [11],4.62 ± 0.82 responses per minute
same,"nose-pokes, active pre-test",[2]; [12],7.49 ± 0.86 responses per minute
same,"nose-pokes, active test",[2]; [12],3.58 ± 0.73 responses per minute
same,"nose-pokes, passive pre-test",[2]; [12],7.48 ± 0.88 responses per minute
same,"nose-pokes, passive test",[2]; [12],3.81 ± 0.47 responses per minute
same,"nose-pokes, active pre-test",[2]; [13],6.98 ± 1.18 responses per minute
same,"nose-pokes, active test",[2]; [13],5.96 ± 1.69 responses per minute
same,"nose-pokes, passive pre-test",[2]; [13],8.50 ± 1.43 responses per minute
same,"nose-pokes, passive test",[2]; [13],6.33 ± 1.66 responses per minute
same,"nose-pokes, active pre-test",[2]; [14],7.10 ± 0.87 responses per minute
same,"nose-pokes, active test",[2]; [14],5.48 ± 1.09 responses per minute
same,"nose-pokes, passive pre-test",[2]; [14],7.35 ± 0.85 responses per minute
same,"nose-pokes, passive test",[2]; [14],8.77 ± 1.85 responses per minute
same,"nose-pokes, active pre-test",[2]; [15],8.36 ± 1.07 responses per minute
same,"nose-pokes, active test",[2]; [15],3.56 ± 1.04 responses per minute
same,"nose-pokes, passive pre-test",[2]; [15],8.31 ± 1.28 responses per minute
same,"nose-pokes, passive test",[2]; [15],5.29 ± 1.11 responses per minute
same,"nose-pokes, active pre-test",[2]; [16],7.50 ± 1.25 responses per minute
same,"nose-pokes, active test",[2]; [16],5.06 ± 1.52 responses per minute
same,"nose-pokes, passive pre-test",[2]; [16],7.56 ± 1.32 responses per minute
same,"nose-pokes, passive test",[2]; [16],7.97 ± 1.76 responses per minute
same,"nose-pokes, active pre-test",[2]; [17],7.31 ± 0.98 responses per minute
same,"nose-pokes, active test",[2]; [17],4.67 ± 1.22 responses per minute
same,"nose-pokes, passive pre-test",[2]; [17],7.08 ± 0.94 responses per minute
same,"nose-pokes, passive test",[2]; [17],4.35 ± 0.98 responses per minute
same,nicotine self-administration (R-criterion),"[2]; MPEP 5, 10, 20 mg/kg, 0.048 μg/inf nicotine",significantly reduced nicotine self-administration at all doses tested
same,nose-poke responding,"[2]; active mice, 0.048 μg/inf nicotine",significantly decreased nose-poke responding in the active mice
